Measured values as given in US10477864B2, “Microbiocidal quinoline (thio)carboxamide derivatives” (priority 2016, dated 2019).

Key:
[1] = system: Fusarium culmorum; experiment: microbe, parasite or virus in culture; assay type: cell-based; details: read-out: control of Fusarium culmorum
[2] = system: Sclerotinia sclerotiorum; experiment: Sclerotinia sclerotiorum / liquid culture (cottony rot); details: 72 h, read-out: control of Sclerotinia sclerotiorum
Protocol: Sclerotinia sclerotiorum/Liquid Culture (Cottony Rot)
Mycelia fragments of a newly grown liquid culture of the fungus are directly mixed into nutrient broth (Vogels broth). After placing a (DMSO) solution of test compound into a microtiter plate (96-well format) the nutrient broth containing the fungal material is added. The test plates are incubated at 24° C. and the inhibition of growth is determined photometrically 3-4 days after application.

[3] = system: Monographella nivalis (Microdochium nivale); experiment: Monographella nivalis (Microdochium nivale) / liquid culture (foot rot cereals); assay type: cell-based; details: 96 h, read-out: control of Monographella nivalis
[4] = system: Gaeumannomyces graminis; experiment: Gaeumannomyces graminis / liquid culture (take-all of cereals); assay type: cell-based; details: read-out: control of Gaeumannomyces graminis
[5] = system: Glomerella lagenarium (Colletotrichum lagenarium); experiment: Glomerella lagenarium (Colletotrichum lagenarium) / liquid culture (anthracnose); assay type: cell-based; details: Colletotrichum orbiculare; read-out: control of Glomerella lagenarium
[6] = system: Magnaporthe grisea (Pyricularia oryzae); experiment: microbe, parasite or virus in culture; assay type: cell-based; details: 72 h, read-out: control of Magnaporthe grisea
[7] = system: Botryotinia fuckeliana (Botrytis cinerea); experiment: Botryotinia fuckeliana (Botrytis cinerea) / liquid culture (gray mould); assay type: cell-based; details: 72 h, read-out: control of Botryotinia fuckeliana
[8] = system: Fusarium culmorum; experiment: whole plant or invertebrate; assay type: in vivo; details: in Triticum aestivum, read-out: control of Fusarium culmorum

| Structure (SMILES) | inhibition of growth at 200 ppm [1] | inhibition of growth at 20 ppm [2] | inhibition of growth at 200 ppm [3] | melting point | inhibition of growth at 200 ppm [4] | inhibition of growth at 200 ppm [5] | inhibition of growth at 200 ppm [6] | inhibition of growth at 200 ppm [7] | pest or weed control at 200 ppm [8] |
| --- | --- | --- | --- | --- | --- | --- | --- | --- | --- |
| CC(C)CC(C)(Cc1ccccc1)NC(=O)c1cnc2c(Cl)cccc2c1 (stereo not shown) [Compound E-14, N-(1-benzyl-1,3-dimethyl-butyl)-8-chloro-quinoline-3-carboxamide] | ≥ 80% | ≥ 80% | ≥ 80% | 147 to 148 °C | ≥ 80% | ≥ 80% | ≥ 80% | ≥ 80% |  |
| Cc1cccc2cc(C(=O)NC(C)(Cc3ccccc3)CC(C)C)cnc12 (stereo not shown) [Compound E-20, N-(1-benzyl-1,3-dimethyl-butyl)-8-methyl-quinoline-3-carboxamide] | ≥ 80% | ≥ 80% | ≥ 80% | 132 to 133 °C | ≥ 80% | ≥ 80% | ≥ 80% | ≥ 80% | ≥ 80% |
| CC(C)CC(C)(Cc1ccc(F)cc1)NC(=O)c1cnc2c(F)cccc2c1 (stereo not shown) [Compound E-24, 8-fluoro-N-[1-[(4-fluorophenyl)methyl]-1,3-dimethyl-butyl]quinoline-3-carboxamide] | ≥ 80% | ≥ 80% | ≥ 80% | 38 to 39 °C | ≥ 80% | ≥ 80% | ≥ 80% | ≥ 80% | ≥ 80% |
| CC(C)CC(C)(Cc1ccc(Cl)cc1)NC(=O)c1cnc2c(F)cccc2c1 (stereo not shown) [Compound E-25] | ≥ 80% | ≥ 80% |  | 57 to 59 °C | ≥ 80% | ≥ 80% | ≥ 80% | ≥ 80% | ≥ 80% |
| CC(C)CC(C)(Cc1cccc(F)c1)NC(=O)c1cnc2c(F)cccc2c1 (stereo not shown) [Compound E-26, 8-fluoro-N-[1-[(3-fluorophenyl)methyl]-1,3-dimethyl-butyl]quinoline-3-carboxamide] | ≥ 80% | ≥ 80% | ≥ 80% | 45 to 47 °C | ≥ 80% | ≥ 80% | ≥ 80% | ≥ 80% | ≥ 80% |
| CC(C)(C)CC(Cc1ccccc1)NC(=O)c1cnc2c(F)cccc2c1 (stereo not shown) [Compound E-28, N-(1-benzyl-3,3-dimethyl-butyl)-8-fluoro-quinoline-3-carboxamide] | ≥ 80% | ≥ 80% | ≥ 80% | 178 to 180 °C | ≥ 80% | ≥ 80% | ≥ 80% | ≥ 80% | ≥ 80% |
| CC(C)CC(Cc1ccccc1)NC(=O)c1cnc2c(F)cccc2c1 (stereo not shown) [Compound E-29, N-(1-benzyl-3-methyl-butyl)-8-fluoro-quinoline-3-carboxamide] | ≥ 80% | ≥ 80% |  | 136 to 139 °C |  | ≥ 80% | ≥ 80% | ≥ 80% | ≥ 80% |
| CC(C)(C)CC(C)(Cc1ccccc1)NC(=O)c1cnc2c(F)cccc2c1 (stereo not shown) [Compound E-34, N-(1-benzyl-1,3,3-trimethyl-butyl)-8-fluoro-quinoline-3-carboxamide] | ≥ 80% | ≥ 80% | ≥ 80% | 48 to 50 °C |  | ≥ 80% | ≥ 80% | ≥ 80% |  |
| C=C(C)CC(C)(Cc1ccccc1)NC(=O)c1cnc2c(F)cccc2c1 (stereo not shown) [Compound E-35, N-(1-benzyl-1,3-dimethyl-but-3-enyl)-8-fluoro-quinoline-3-carboxamide] | ≥ 80% | ≥ 80% | ≥ 80% | 115 to 117 °C | ≥ 80% | ≥ 80% | ≥ 80% | ≥ 80% | ≥ 80% |
| C=C(C)CC(C)(Cc1ccccc1)NC(=O)c1cnc2ccccc2c1 (stereo not shown) [Compound E-36, N-(1-benzyl-1,3-dimethyl-but-3-enyl)quinoline-3-carboxamide] | ≥ 80% | ≥ 80% | ≥ 80% | 99 to 103 °C |  | ≥ 80% | ≥ 80% | ≥ 80% | ≥ 80% |
| CC(Cc1ccccc1)(CC(F)(F)F)NC(=O)c1cnc2c(F)cccc2c1 (stereo not shown) [Compound E-39, N-(1-benzyl-3,3,3-trifluoro-1-methyl-propyl)-8-fluoro-quinoline-3-carboxamide] | ≥ 80% | ≥ 80% |  | 158 to 160 °C | ≥ 80% | ≥ 80% | ≥ 80% | ≥ 80% | ≥ 80% |
| CC1(CC(C)(Cc2ccccc2)NC(=O)c2cnc3c(F)cccc3c2)CC1 (stereo not shown) [Compound E-47, N-[1-benzyl-1-methyl-2-(1-methylcyclopropyl)ethyl]-8-fluoro-quinoline-3-carboxamide] | ≥ 80% | ≥ 80% |  | 126 to 129 °C | ≥ 80% | ≥ 80% | ≥ 80% | ≥ 80% |  |
| CC(C)CC(C)(Cc1ccccc1)NC(=S)c1cnc2c(F)cccc2c1 (stereo not shown) [Compound E-114, N-(1-benzyl-1,3-dimethyl-butyl)-8-fluoro-quinoline-3-carbothioamide] | ≥ 80% | ≥ 80% | ≥ 80% | 150 to 153 °C |  | ≥ 80% | ≥ 80% | ≥ 80% | ≥ 80% |
| CC(C)C[C@](C)(Cc1ccccc1)NC(=O)c1cnc2c(F)cccc2c1 [Compound F-1, N-[(1R)-1-benzyl-1,3-dimethyl-butyl]-8-fluoro-quinoline-3-carboxamide] | ≥ 80% | ≥ 80% | ≥ 80% |  | ≥ 80% | ≥ 80% | ≥ 80% | ≥ 80% | ≥ 80% |
| C=C(C)C[C@](C)(Cc1ccccc1)NC(=O)c1cnc2c(F)cccc2c1 [Compound F-10, N-[(1R)-1-benzyl-1,3-dimethyl-but-3-enyl]-8-fluoro-quinoline-3-carboxamide] | ≥ 80% | ≥ 80% | ≥ 80% |  | ≥ 80% | ≥ 80% |  | ≥ 80% | ≥ 80% |
